The text below walks through data of US20260083686A1, “METHODS FOR SUPPRESSING ACCUMULATION OF REFLUX-INDUCED PROTEIN ADDUCTS” (Vanderbilt University, priority 2018, published 2026).

In assay [1] the test system is isoLG protein adducts (LG-lysine lactam) in TE-7 cells. The assay can be described thus: LG-lysine lactam adducts by LC/ESI/MS/MS in TE-7 cells treated with acidic bile salts (BA/A). In kind it is cell-based, human. The note with it: BA/A 100 μM pH 4.0 for 30 min, 2-HOBA 50 μM. An excerpt:
Formation of LG-lysine adducts was further verified by quantification of the LG-lysyl lactam adducts using liquid chromatography-electrospray ionization-tandem mass spectrometry (LC/ESI/MS/MS) in TE-7 cells treated with BA/A. Our studies confirmed that levels of LG-lysine lactam adduct are higher in BA/A treated than control samples. Our quantification analyses were based on specific transitions from the molecular ion at m/z=479.2 to the specific fragment at m/z=332.1. The elution of the two fragment ions found in BA/A treated samples was similar to the [13C6]lysine-lactam internal standard (FIG. 2A). As an additional control, TE-7 cells were treated with BA/A as above but in the presence of known isoLG scavenger 2-hydroxybenzylamine (2HOBA) and analyzed by mass spectrometry.
Cell Lines: Human non-tumorous esophageal cell line (HET-1A) and human esophageal carcinoma cell line (TE-7) were purchased from ATCC. The morphology, karyotyping and PCR based techniques were used by ATCC to confirm the cell line identity. […]
Detection of Levuglandinyl-Lysine Lactam Using Liquid Chromatography/Electrospray Ionization/Tandem Mass Spectrometry (LC/ESI/MS/MS): Levuglandinyl-lysine lactam was analyzed in TE-7 cells treated with acidic bile salts and control untreated cells using LC/ESI/MS/MS. […]

Assay [2] deals with isoLG protein adducts in esophageal tissues. Nature of the assay: Surgical (esophagojejunostomy) reflux model in mice, isoLG adducts by immunohistochemistry with D11 antibody. In kind it is in vivo. Particulars: 2-HOBA 1 mg/ml in drinking water for 10 days; for accumulation of isoLG adducts in esophageal tissues in vivo: mice with surgically induced reflux. From the text: To investigate the formation of isoLG protein adducts in the esophagus, The present inventors used a surgical model of esophageal reflux injury. To generate animals with reflux, a section of the mouse jejunum was transected and then anastomosed to the esophagus resulting in an increased reflux. […] Using immunohistochemistry with D11 antibody, the present inventors compared levels of isoLG protein adducts in esophageal epithelia of animals with reflux induced by surgery and control animals with sham surgery. Levels of isoLG adducts were also analyzed in surgical animals treated with isoLG scavenger 2-HOBA for 10 days. The present inventors found significant accumulation of isoLG protein adducts in esophageal animal tissues affected by reflux.
Induction of Reflux in Mice: Reflux was induced by surgical procedure, esophagojejunal anastomosis, as previously described. Esophagojejunostomy was performed on fourteen 8-week-old 129SV mice according to the protocol approved by the Vanderbilt University Animal Care and Use Committee. Animals were then be allowed a 2-weeks recovery period on regular rodent chow ad libitum prior to were randomly assigned into two groups. First group of 7 mice with surgery was treated with 2-HOBA (1 mg/ml) delivered in drinking water for 10 days, while a control group (7 surgical animals) only received water. Additional control group of 5 animals with sham surgery received water. The esophagus and gastroesophageal junction areas from the test and control groups of animals were harvested, paraffin-embedded and analyzed by immunohistochemistry with D11 antibody. Indices of D11 positivity were scored and compared in test and control groups of animals.

Assay [3] has as its system p53 isoLG protein adducts in EPC-2 cells. Nature of the assay: p53 immunoprecipitation and Western blot with D11 antibody for p53 isoLG adducts in BA/A-treated EPC-2 cells. In kind it is cell-based, human. Particulars: 2-HOBA 50 μM, p53 (DO-1) immunoprecipitation, D11 Western blot. The protocol: To directly analyze p53 protein adducts, cellular lysates of EPC-2 cells, which were treated with BA/A in the presence or absence of 2-HOBA, were immunoprecipitated with p53 antibody. The immunoprecipitated p53 protein was then analyzed for the isoLG adducts by Western blotting with isoLG-specific D11 antibody.
Treatment With Acidic Bile Salts (BA/A) and 2-HOBA: Cells were treated in acidic DMEM media (pH 4.0), containing bile salts cocktail at final concentration of 100 μM. The bile salt cocktail was prepared with a combination of glycocholic, taurocholic, glycodeoxycholic, glycochenodeoxycholic and deoxycholic sodium salts (all reagents were from Sigma-Aldrich, St. Louis, MO) at a concentration of 20 μM each. TE-7 and HET-1A cells were treated for 30 minutes, whereas, EPC-2 cells were treated for 15 minutes and then the media was replaced. […]
For immunoprecipitation, cells were harvested by centrifugation at 200 g for 5 minutes and resuspended in PBS with protease inhibitor cocktail. […] The immunoprecipitated samples were analyzed by Western blotting with D11 antibody and anti-E tag HRP-conjugated antibodies from Abcam. The analyzed membranes were stripped in Restore™ Western Blot Stripping Buffer (ThermoFisher Scientific, Waltham, MA) at +50° C. for 1 hour, washed, and blocked with 5% milk and analyzed by Western blotting with p53 (DO1) antibody.
Background: In western blotting, separated proteins are transferred to a membrane and probed.

Each structure is given as a SMILES string. “Also recorded” adds a separate entry of the source.

`NCc1ccccc1O` [2-HOBA, 2-hydroxybenzylamine]: the “formation of isoLG protein adducts (LG-lysine lactam adduct levels)” value is “higher in BA/A-treated samples compared to control and treated with isoLG scavenger 2-HOBA” in assay [1]; “inhibited formation of isoLG protein adducts” in assay [1] (listed as 2HOBA). Also, the “accumulation of isoLG adducts in esophageal tissues in vivo” value in assay [2] is “efficiently decreased isoLG protein adducts in mice in vivo; also recorded: prevents accumulation of isoLG adducts in vivo; also recorded: inhibited accumulation of isoLG adducts in vivo”; in assay [2] (listed as 2HOBA), “efficiently suppresses accumulation of reflux-induced protein adducts in vitro and in vivo”. In assay [2] (mice), the “isoLG adducts: surgical animals treated with 2-HOBA versus sham control animals” value is “did not find significant difference”. For the same compound, the “formation of p53 isoLG protein adducts” value in assay [3] is recorded as “significantly inhibited formation of p53 protein adducts; also recorded: inhibited the formation of p53 protein adducts”.
